Source: PMC6009979, “The role of 5-arylalkylamino- and 5-piperazino- moieties on the 7-aminopyrazolo[4,3-d]pyrimidine core in affecting adenosine A1 and A2A receptor affinity and selectivity profiles” (Journal of Enzyme Inhibition and Medicinal Chemistry, 2017)

How the values were obtained:
hA2A AR = biological target: T1, hA2A AR (Homo sapiens, UniProt P29274); assay: [3H]ZM241385 competition binding to hA2A CHO membranes; conditions: [3H]ZM241385, hA2A CHO; for Binding experiments I% hA2A: inhibition at 1 μM; for Ki: mean ± SEM of four assays, read-out: Binding experiments Ki hA2A
T1 construct: expressed in transfected cells; host or cells: CHO cells (membranes)
T1 sequence (P29274 whole entry): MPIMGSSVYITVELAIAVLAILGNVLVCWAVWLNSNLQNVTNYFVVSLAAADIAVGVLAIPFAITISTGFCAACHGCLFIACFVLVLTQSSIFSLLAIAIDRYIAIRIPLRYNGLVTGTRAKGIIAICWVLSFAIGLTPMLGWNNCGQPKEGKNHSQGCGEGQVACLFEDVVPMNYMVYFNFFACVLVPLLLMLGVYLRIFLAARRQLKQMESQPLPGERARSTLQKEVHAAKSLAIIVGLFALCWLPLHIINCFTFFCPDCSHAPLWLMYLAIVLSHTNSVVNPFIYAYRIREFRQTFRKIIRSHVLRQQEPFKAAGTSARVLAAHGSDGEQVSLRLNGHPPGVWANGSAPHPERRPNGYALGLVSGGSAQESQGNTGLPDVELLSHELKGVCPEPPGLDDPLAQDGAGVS

hA2B AR = biological target: T2, hA2B AR (Homo sapiens, UniProt P29275); assay: cAMP assay in hA2B CHO cells stimulated by 200 nM NECA; assay type: cell-based; conditions: read-out: cAMP assays I% hA2B
T2 construct: expressed in transfected cells; host or cells: CHO cells
T2 sequence (P29275 1-332): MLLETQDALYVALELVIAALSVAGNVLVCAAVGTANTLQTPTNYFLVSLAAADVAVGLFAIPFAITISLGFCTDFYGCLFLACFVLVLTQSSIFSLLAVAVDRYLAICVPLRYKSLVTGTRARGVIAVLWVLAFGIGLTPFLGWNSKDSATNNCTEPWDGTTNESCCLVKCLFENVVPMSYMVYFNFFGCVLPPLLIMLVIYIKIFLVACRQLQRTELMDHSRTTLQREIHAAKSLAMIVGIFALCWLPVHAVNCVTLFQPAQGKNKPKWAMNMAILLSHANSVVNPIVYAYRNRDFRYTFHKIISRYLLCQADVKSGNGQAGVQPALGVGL
Method: CHO cells transfected with hA2B AR subtypes were washed with phosphate-buffered saline, diluted trypsin and centrifuged for 10 min at 200 g. The cells (1 × 10^6 cells/assay) were suspended in 0.5 ml of incubation mixture (mM): NaCl 15, KCl 0.27, NaH2PO4 0.037, MgSO4 0.1, CaCl2 0.1, Hepes 0.01, MgCl2 1, glucose 0.5, pH 7.4 at 37 °C, 2 IU/ml adenosine deaminase and 4–(3-butoxy-4-methoxybenzyl)-2-imidazolidinone (Ro 20–1724) as phosphodiesterase inhibitor and preincubated for 10 min in a shaking bath at 37 °C. The potency of antagonists to the A2B AR was determined by the inhibition of NECA (200 nM)-induced cyclic AMP production. The reaction was terminated by the addition of cold 6% trichloroacetic acid (TCA). The TCA suspension was centrifuged at 2000 g for 10 min at 4 °C and the supernatant was extracted four times with water saturated diethyl ether. The final aqueous solution was tested for cyclic AMP levels by a competition protein binding assay. Samples of cyclic AMP standard (0–10 pmoles) were added to each test tube containing [^3H] cyclic AMP and incubation buffer (trizma base 0.1 M, aminophylline 8.0 mM, 2-mercaptoethanol 6.0 mM, pH 7.4). The binding protein prepared from beef adrenals was added to the samples previously incubated at 4 °C for 150 min, and, after the addition of charcoal, was centrifuged at 2000 g for 10 min. The clear supernatant was counted in a Scintillation Counter Packard Tri Carb 2810 TR with an efficiency of 58%.
(§1) The protein concentration was determined according to a Bio-Rad method[56] with bovine albumin as a standard reference. Inhibitory binding constant (Ki) values were calculated from those of IC50 according to Cheng & Prusoff equation Ki = IC50/(1 + [C*]/KD*), where [C*] is the concentration of the radioligand and KD* its dissociation constant. A weighted non-linear least-squares curve fitting program LIGAND[58] was used for computer analysis of inhibition experiments. IC50 values obtained in cyclic AMP assay were calculated by non-linear regression analysis using the equation for a sigmoid concentration–response curve (Graph-PAD Prism, San Diego, CA).

hA3 AR = biological target: T3, hA3 AR (Homo sapiens, UniProt P0DMS8); assay: [125I]AB-MECA competition binding to hA3 CHO membranes; conditions: for inhibition at 1 µM / inhibition: read-out: Binding experiments I% hA3, inhibition at 1 μM; for Ki: mean ± SEM of four assays, read-out: Binding experiments Ki hA3
T3 construct: expressed in transfected cells; host or cells: CHO cells (membranes)
T3 sequence (P0DMS8 1-318): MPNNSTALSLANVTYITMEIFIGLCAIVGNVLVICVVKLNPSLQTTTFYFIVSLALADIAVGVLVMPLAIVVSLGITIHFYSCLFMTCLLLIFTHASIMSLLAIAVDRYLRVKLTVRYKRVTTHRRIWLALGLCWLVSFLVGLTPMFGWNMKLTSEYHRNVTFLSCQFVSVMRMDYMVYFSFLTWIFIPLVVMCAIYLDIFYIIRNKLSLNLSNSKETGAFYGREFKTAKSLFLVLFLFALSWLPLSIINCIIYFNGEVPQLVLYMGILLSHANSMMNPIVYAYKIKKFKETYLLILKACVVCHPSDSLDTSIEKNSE
Method: All synthesized compounds were tested to evaluate their affinity at human A1, A2A and A3 ARs. Displacement experiments of [^3H]DPCPX (1 nM) to hA1 CHO membranes (50 µg of protein/assay) and at least 6–8 different concentrations of antagonists for 120 min at 25 °C in 50 mM Tris-HCl buffer pH 7.4 were performed. Non-specific binding was determined in the presence 1 µM of DPCPX (≤10% of the total binding). […] Competition binding experiments to hA3 CHO membranes (50 µg of protein/assay) were performed incubating 0.5 nM [^125I]AB-MECA, 50 mM Tris-HCl buffer, 10 mM MgCl2, 1 mM EDTA, pH 7.4 and at least 6–8 different concentrations of examined ligands for 60 min at 37 °C[54]. Non-specific binding was defined as binding in the presence of 1 µM AB-MECA and was about 20% of total binding. Bound and free radioactivity were separated by filtering the assay mixture through Whatman GF/B glass fiber filters by using a Brandel cell harvester. The filter bound radioactivity was counted by Scintillation Counter Packard Tri Carb 2810 TR with an efficiency of 58%.
as §1

hA1 AR = biological target: T4, hA1 AR (Homo sapiens, UniProt P30542); assay: [3H]DPCPX competition binding to hA1 CHO membranes; conditions: for Ki: mean ± SEM of four assays, read-out: Binding experiments Ki hA1; for Binding experiments I% hA1: inhibition at 1 μM
T4 construct: expressed in transfected cells; host or cells: CHO cells (membranes)
T4 sequence (P30542 1-326): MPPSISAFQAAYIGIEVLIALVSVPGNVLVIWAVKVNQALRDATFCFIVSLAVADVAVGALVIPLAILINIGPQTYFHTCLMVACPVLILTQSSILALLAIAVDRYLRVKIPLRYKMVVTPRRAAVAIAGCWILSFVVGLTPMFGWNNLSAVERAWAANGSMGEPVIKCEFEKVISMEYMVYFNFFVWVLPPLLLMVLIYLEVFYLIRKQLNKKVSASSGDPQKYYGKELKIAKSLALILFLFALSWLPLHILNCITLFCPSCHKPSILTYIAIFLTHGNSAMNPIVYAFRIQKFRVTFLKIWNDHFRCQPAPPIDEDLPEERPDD

| Binding experiments I% hA2A (hA2A AR) [%] | inhibition at 1 µM (hA2B AR) [%] | inhibition at 1 µM (hA3 AR) [%] | Ki (hA1 AR) [nM] | inhibition (hA3 AR) [%] | Ki (hA3 AR) [nM] | Binding experiments I% hA1 (hA1 AR) [%] | Ki (hA2A AR) [nM] | SMILES |
| --- | --- | --- | --- | --- | --- | --- | --- | --- |
| 26 | 1 | 19 | 153 ± 11 |  |  |  |  | COc1ccc(CCNc2nc(N)c3nn(-c4ccccc4)cc3n2)cc1 [Compound 11, 7-Amino-5-[2–(4-methoxyphenyl)ethyl]amino-2-phenyl-2H-pyrazolo[4,3-d]pyrimidine] |
| 33 | 1 |  | 615 ± 49 | 21 |  |  |  | CC(C)(C)OC(=O)N1CCN(c2nc(N)c3nn(-c4ccccc4)cc3n2)CC1 [Compound 21, Tert-butyl 4-(7-amino-2-phenyl-2H-pyrazolo[4,3-d]pyrimidin-5-yl)piperazine 1-carboxylate] |
| 1 | 2 |  |  |  | 61 ± 8 | 1 |  | Nc1nc(Nc2ccc(Cl)cc2Cl)nc2cn(-c3ccccc3)nc12 [Compound 3, 7-Amino-5–(2,4-dichlorophenyl)amino-2-phenyl-2H-pyrazolo[4,3-d]pyrimidine] |
|  | 1 | 1 |  |  |  | 27 | 150 ± 14 | Nc1nc(NCCc2ccc(O)cc2)nc2cn(-c3ccccc3)nc12 [Compound 12, 7-Amino-5-(4-hydroxyphenethyl)amino-2-phenyl-2H-pyrazolo[4,3-d]pyrimidine] |
| 3 | 3 |  | 429 ± 36 | 1 |  |  |  | Nc1nc(N2CCN(C(=O)Cc3ccccc3)CC2)nc2cn(-c3ccccc3)nc12 [Compound 24, 7-Amino-2-phenyl-5-(4-phenylacetylpiperazin-1-yl)-2H-pyrazolo[4,3-d]pyrimidine] |
| 4 | 1 | 1 |  |  |  | 1 |  | Cn1cc2nc(Nc3ccccc3)nc(N)c2n1 [Compound 8, 7-Amino-2-methyl-5-phenylamino-2H-pyrazolo[4,3-d]pyrimidine] |
| 38 | 16 |  | 92 ± 8 | 5 |  |  |  | Nc1nc(N2CCN(Cc3ccco3)CC2)nc2cn(-c3ccccc3)nc12 [Compound 22] |
|  | 17 | 22 | 415 ± 39 |  |  |  | 189 ± 18 | COc1ccc(CCNc2nc(N)c3nn(-c4ccccc4)cc3n2)cc1OC [Compound 13, 7-Amino-5-[2-(3,4-dimethoxyphenyl)ethyl]amino-2-phenyl-2H-pyrazolo[4,3-d]pyrimidine] |
| 8 | 1 |  |  |  | 27 ± 3 | 33 |  | COc1ccc(Nc2nc(N)c3nn(-c4ccccc4)cc3n2)cc1 [Compound 2, 7-Amino-5-(4-methoxyphenyl)amino-2-phenyl-2H-pyrazolo[4,3-d]pyrimidine] |
| 40 | 1 | 38 | 11.5 ± 1.2 |  |  |  |  | Nc1nc(NCCc2ccccc2)nc2cn(-c3ccccc3)nc12 [Compound 6, 7-Amino-5-(2-phenylethyl)amino-2-phenyl-2H-pyrazolo[4,3-d]pyrimidine] |
| 29 | 2 |  | 193 ± 17 | 1 |  |  |  | Nc1nc(N2CCN(Cc3ccc(F)cc3Cl)CC2)nc2cn(-c3ccccc3)nc12 [Compound 19, 7-Amino-5-(4-(2-chloro-4-fluoro)benzylpiperazin-1-yl)-2-phenyl-2H-pyrazolo[4,3-d]pyrimidine] |
| 1 | 1 | 20 |  |  |  | 9 |  | Cn1cc2nc(NCc3ccccc3)nc(N)c2n1 [Compound 9, 7-Amino-5-benzylamino-2-methyl-2H-pyrazolo[4,3-d]pyrimidine] |
| 29 | 1 | 24 | 785 ± 72 |  |  |  |  | Nc1nc(NCCCc2ccccc2)nc2cn(-c3ccccc3)nc12 [Compound 7, 7-Amino-5-(3-phenylpropyl)-2-phenyl-2H-pyrazolo[4,3-d]pyrimidines] |
| 40 | 10 | 8 | 481 ± 42 |  |  |  |  | Nc1nc(Nc2ccc(O)cc2)nc2cn(-c3ccccc3)nc12 [Compound 4, 7-Amino-5-(4-hydroxyphenyl)amino-2-phenyl-2H-pyrazolo[4,3-d]pyrimidine] |
|  | 1 | 3 | 71 ± 6 |  |  |  | 238 ± 24 | Nc1nc(NCCc2ccc(O)c(O)c2)nc2cn(-c3ccccc3)nc12 [Compound 14, 7-Amino-5-(3,4-dihydroxyphenethyl)amino-2-phenyl-2H-pyrazolo[4,3-d]pyrimidine] |
| 2 | 2 |  |  | 1 |  | 29 |  | CC(C)(C)CC(=O)N1CCN(c2nc(N)c3nn(-c4ccccc4)cc3n2)CC1 [Compound 23, 7-Amino-2-phenyl-5-(4-(3,3-dimethylbutiryl)piperazin-1-yl)-2H-pyrazolo[4,3-d]pyrimidine] |
| 1 | 1 |  | 162 ± 14 | 1 |  |  |  | Nc1nc(N2CCN(Cc3ccccc3)CC2)nc2cn(-c3ccccc3)nc12 [Compound 16, 7-Amino-5-(4-benzylpiperazin-1-yl)-2-phenyl-2H-pyrazolo[4,3-d]pyrimidine] |
| 16 | 2 |  | 580 ± 47 | 13 |  |  |  | Nc1nc(N2CCN(C(=O)c3ccco3)CC2)nc2cn(-c3ccccc3)nc12 [Compound 20] |

| SMILES | Binding experiments I% hA2A (hA2A AR) [%] | inhibition at 1 µM (hA2B AR) [%] | inhibition at 1 µM (hA3 AR) [%] | Ki (hA1 AR) [nM] | inhibition (hA3 AR) [%] | Ki (hA3 AR) [nM] | Binding experiments I% hA1 (hA1 AR) [%] | Ki (hA2A AR) [nM] |
| --- | --- | --- | --- | --- | --- | --- | --- | --- |
| Nc1nc(NCc2ccccc2)nc2cn(-c3ccccc3)nc12 [Compound 5, 7-Amino-5-benzylamino-2-phenyl-2H-pyrazolo[4,3-d]pyrimidine] |  | 2 |  | 25 ± 3 |  | 28 ± 3 |  | 123 ± 11 |
